According to ChEMBL document CHEMBL6071156 (Eur J Med Chem, 2024):
Activity calls are given as the source filed them. The rule behind the calls is not given here.

How the values were obtained:
[1] = Cytotoxicity against green monkey Vero 76 cells assessed as reduction in cell viability; assay type: toxicity, cell-based; conditions: chlorocebus sabaeus
[2] = Selective index, ratio of ratio of CC50 for cytotoxicity against green monkey Vero 76 cells to EC50 for antiviral activity against CHIKV S27 in green monkey Vero 76 cells assessed as reduction; assay type: toxicity, cell-based; conditions: read-out: Selectivity Index
Chikungunya virus [3] = test: Antiviral activity against CHIKV S27 in green monkey Vero 76 cells assessed as reduction in virus-induced cytopathic effect; assay type: functional, organism-based; conditions: S27, Vero 76
Chikungunya virus [4] = test: Antiviral activity against CHIKV infected in C57BL/6 mouse assessed as footpad swelling at 300 mg/kg/day, ip measured after 6 days post infection presence of compound (reference value: 40.9+/-12.4); assay type: functional; conditions: time 6 day
Chikungunya virus [5] = test: Antiviral activity against CHIKV infected in C57BL/6 mouse assessed as mouse survival at 300 mg/kg/day, ip measured after 6 days post infection after 4 hrs of last treatment; assay type: functional, organism-based; conditions: time 6.0 day
Chikungunya virus [6] = test: Antiviral activity against CHIKV infected in C57BL/6 mouse model assessed as virus titers at 100 mg/kg/day, ip measured after 6 days post infection presence of compound (reference value: 5.3+/0.3); assay type: functional; conditions: time 6 day
[7] = target: Polyprotein P1234 (Chikungunya virus (strain S27-African prototype) (CHIKV)) (UniProt Q8JUX6); conditions: dose 0.27-600 µM, time 2000-8000 sec
[8] = Metabolic stability in human liver S9 fraction assessed as half life by HPLC-MS/MS analysis; assay type: ADME, subcellular
[9] = target: Polyprotein P1234 (Chikungunya virus (strain S27-African prototype) (CHIKV)) (UniProt Q8JUX6)
[10] = Metabolic stability in CD-1 mouse liver microsomes assessed as half life by HPLC-MS/MS analysis; assay type: ADME, Microsome
[11] = Metabolic stability in human liver microsomes assessed as intrinsic clearance by HPLC-MS/MS analysis; assay type: ADME, Microsome
[12] = Metabolic stability in human liver S9 fraction assessed as intrinsic clearance by HPLC-MS/MS analysis; assay type: ADME, subcellular
[13] = target: Polyprotein P1234 (Chikungunya virus (strain S27-African prototype) (CHIKV)) (UniProt Q8JUX6); conditions: dose 0.27-600 µM
Chikungunya virus [14] = test: Antiviral activity against CHIKV S27 in green monkey Vero 76 cells assessed as reduction in virus yield measured after 3 days by Virus yield reduction assay; assay type: functional; conditions: S27, Vero 76, 72 h, time 3 day

Polyprotein P1234 (Chikungunya virus (strain S27-African prototype) (CHIKV)), sequence (Q8JUX6 whole entry): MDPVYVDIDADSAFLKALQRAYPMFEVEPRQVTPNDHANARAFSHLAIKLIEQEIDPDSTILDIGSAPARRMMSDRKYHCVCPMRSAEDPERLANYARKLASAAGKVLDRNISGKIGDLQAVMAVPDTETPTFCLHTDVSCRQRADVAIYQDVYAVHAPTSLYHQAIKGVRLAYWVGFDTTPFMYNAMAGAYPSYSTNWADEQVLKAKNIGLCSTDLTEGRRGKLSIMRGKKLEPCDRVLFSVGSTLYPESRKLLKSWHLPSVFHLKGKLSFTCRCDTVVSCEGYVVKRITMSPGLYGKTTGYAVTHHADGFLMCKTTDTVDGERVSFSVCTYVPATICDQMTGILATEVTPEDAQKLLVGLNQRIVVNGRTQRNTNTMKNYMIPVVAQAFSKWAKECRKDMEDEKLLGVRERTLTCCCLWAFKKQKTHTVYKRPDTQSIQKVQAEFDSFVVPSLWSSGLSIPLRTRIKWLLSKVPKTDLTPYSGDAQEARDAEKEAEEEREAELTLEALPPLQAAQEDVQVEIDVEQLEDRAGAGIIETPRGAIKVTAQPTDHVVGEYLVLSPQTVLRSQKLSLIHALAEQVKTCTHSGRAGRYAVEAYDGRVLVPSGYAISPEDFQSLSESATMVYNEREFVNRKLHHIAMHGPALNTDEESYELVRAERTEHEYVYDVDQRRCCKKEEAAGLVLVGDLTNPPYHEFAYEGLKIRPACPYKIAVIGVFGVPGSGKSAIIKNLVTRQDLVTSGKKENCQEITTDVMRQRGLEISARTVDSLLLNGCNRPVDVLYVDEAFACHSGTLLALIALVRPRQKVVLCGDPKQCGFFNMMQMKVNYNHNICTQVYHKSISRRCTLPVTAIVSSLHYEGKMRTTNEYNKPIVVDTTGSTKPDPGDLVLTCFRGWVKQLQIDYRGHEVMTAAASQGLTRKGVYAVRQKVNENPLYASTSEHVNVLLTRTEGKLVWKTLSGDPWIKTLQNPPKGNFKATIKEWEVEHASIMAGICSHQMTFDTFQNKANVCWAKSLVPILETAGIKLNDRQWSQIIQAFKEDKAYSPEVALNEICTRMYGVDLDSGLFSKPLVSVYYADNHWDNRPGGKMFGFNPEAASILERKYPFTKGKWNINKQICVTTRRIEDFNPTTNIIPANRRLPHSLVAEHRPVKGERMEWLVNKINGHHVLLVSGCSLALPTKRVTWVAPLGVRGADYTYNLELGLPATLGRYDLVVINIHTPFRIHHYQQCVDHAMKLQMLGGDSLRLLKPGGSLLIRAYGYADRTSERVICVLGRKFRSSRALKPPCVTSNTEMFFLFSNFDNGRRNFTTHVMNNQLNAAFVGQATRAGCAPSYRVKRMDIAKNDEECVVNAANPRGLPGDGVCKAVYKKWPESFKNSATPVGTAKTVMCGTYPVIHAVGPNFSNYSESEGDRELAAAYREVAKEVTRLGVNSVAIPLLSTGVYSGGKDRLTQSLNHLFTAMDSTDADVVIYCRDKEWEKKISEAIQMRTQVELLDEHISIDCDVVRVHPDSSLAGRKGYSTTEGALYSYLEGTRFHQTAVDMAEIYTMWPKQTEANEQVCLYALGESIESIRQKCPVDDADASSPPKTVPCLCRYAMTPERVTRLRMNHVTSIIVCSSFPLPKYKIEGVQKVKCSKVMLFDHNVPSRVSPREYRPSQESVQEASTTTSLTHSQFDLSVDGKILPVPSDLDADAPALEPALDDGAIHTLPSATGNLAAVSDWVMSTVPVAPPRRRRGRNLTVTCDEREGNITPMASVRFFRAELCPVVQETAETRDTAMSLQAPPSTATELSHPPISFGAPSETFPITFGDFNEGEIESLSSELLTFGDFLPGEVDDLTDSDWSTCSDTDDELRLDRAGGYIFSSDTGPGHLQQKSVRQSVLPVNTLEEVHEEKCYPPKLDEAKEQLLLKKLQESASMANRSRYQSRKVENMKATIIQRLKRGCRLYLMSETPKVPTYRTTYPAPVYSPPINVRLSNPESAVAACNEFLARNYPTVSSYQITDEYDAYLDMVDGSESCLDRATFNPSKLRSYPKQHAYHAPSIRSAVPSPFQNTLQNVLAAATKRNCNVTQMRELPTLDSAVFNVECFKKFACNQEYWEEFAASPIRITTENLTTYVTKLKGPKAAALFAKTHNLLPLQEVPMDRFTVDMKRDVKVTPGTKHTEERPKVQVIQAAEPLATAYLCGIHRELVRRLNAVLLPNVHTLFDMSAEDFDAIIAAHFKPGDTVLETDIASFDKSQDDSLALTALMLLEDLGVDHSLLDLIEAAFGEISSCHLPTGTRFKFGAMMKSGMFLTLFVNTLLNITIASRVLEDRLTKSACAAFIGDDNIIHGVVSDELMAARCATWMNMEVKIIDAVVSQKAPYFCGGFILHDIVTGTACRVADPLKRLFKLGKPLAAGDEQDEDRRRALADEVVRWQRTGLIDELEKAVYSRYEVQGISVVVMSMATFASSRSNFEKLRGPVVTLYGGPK

SMILES	CC50 [1]	EC50 (Chikungunya virus [3])	further results
CC1CC(C)(C)Nc2c(C(=O)NC/C=C/S(C)(=O)=O)cccc21 (stereo not given)	> 50 µM	25 µM	selectivity ratio [2]: > 2
COC(=O)/C=C/CNC(=O)c1cc(C)cc2c1NC(C)(C)C=C2C	> 43 µM	> 43 µM	
COC(=O)/C=C/CNC(=O)c1cccc2ccc(C)nc12	34 µM	> 34 µM	
CS(=O)(=O)/C=C/[C@H](Cc1ccccc1)NC(=O)c1cccc2cccnc12	> 50 µM	> 50 µM	
COC(=O)/C=C/CNC(=O)c1cccc2cccnc12	> 50 µM	> 50 µM	
CC1=CC(C)(C)Nc2c(C(=O)NC/C=C/S(C)(=O)=O)cccc21	39 µM	23 µM	
COC(=O)/C=C/CNC(=O)c1cccc2c1NC(C)(C)C=C2C	> 22 µM	> 22 µM	
CC1=CC(C)(C)Nc2c(C(=O)N[C@@H](C)/C=C/S(C)(=O)=O)cccc21	> 50 µM	4.4 µM	selectivity ratio [2]: > 11
COC(=O)/C=C/CNC(=O)c1c[nH]c2ccc(Br)cc12	16 µM	3.1 µM	
COC(=O)/C=C/CNC(=O)c1ccccc1Nc1ccccc1	38 µM	> 38 µM	
COC(=O)CCCNC(=O)c1cccc2c1NC(C)(C)CC2C (stereo not given)	> 50 µM	> 50 µM	
NC(=O)c1nc(F)cnc1O			Activity (Chikungunya virus [4]): 32.6%; Survival (Chikungunya virus [5]): Active; Activity (Chikungunya virus [6]): 5.1
CC1CCc2cccc(C(=O)NC/C=C/S(C)(=O)=O)c2N1 (stereo not given)	> 50 µM	0.23 µM	TDI [7]: Active; t1/2 [8]: > 2 h; Ratio (10^-6 microM/s) [9]: 35.8; t1/2 [10]: 1.356 h; CLH [11]: < 57.8 µL/min/mg; CLH [12]: < 19.3 µL/min/mg; inhibition [13]: Dose-Dependent Effect; selectivity ratio [2]: > 220; EC90 (Chikungunya virus [14]): 1.5 µM
COC(=O)/C=C/CNC(=O)c1cccc2c1NCCC2	> 50 µM	> 50 µM	
